What was measured:
[1] = test system: sensory neurons myelinated by Schwann cells; test: Neuroprotection on myelinated sensory neuron/Schwann cell coculture, cisplatin poisoning, curative protocol (co-incubation 24 h); format: cell-based, rat
Text: The in vitro model used is a culture of sensory neurons myelinated by Schwann cells (Callizot et al., 2011, Exp Cell Res 317:2374-2383). This model, miniaturized in 96 wells, makes it possible to analyze the effects of molecules on the development of sensory neurons and on the myelination of axons by Schwann cells.
(§1) Protocol of the coculture of sensory neurons and Schwann cells: Female rats with 15 days gestation were killed by cervical dislocation (Wistar rats; January Lab) and the fetuses were removed from the uterus. Embryonic DRGs were collected and placed in an icy medium of Leibovitz 15 (L15; PanBiotech, Ref P04-27055, batch: 4590720) containing 2% Penicillin-Streptomycin (PS; PanBiotech, ref: P06-07100, batch: 7390220) and 1% bovine serum albumin (BSA; PanBiotech, Ref: P06-1391100, batch: H200403). DRGs were dissociated by trypsinization for 20 minutes (min) at 37° C. (Trypsin EDTA 1×; PanBiotech, Ref: P10-023100, batch: 3590720). The reaction was stopped by the addition of Dulbecco's modified Eagle medium (DMEM; PanBiotech, Ref: P04-03600, batch: 4080720) containing DNase I grade II (0.1 mg/ml; PanBiotech, Ref: P60-37780100, batch: H181015) and 10% fetal calf serum (FCS; Invitrogen, Ref: 10270106, batch: 2232584). The cells were then mechanically dissociated by 3 passes through a 10 ml pipette. The cells were then centrifuged at 180×g for 10 min at +4° C. on a layer of BSA (3.5%) in medium L15. The supernatant was discarded and the cell pellets were resuspended in a defined culture medium consisting of Neurobasal (Invitrogen, Ref: 21103049, batch: 2176355) supplemented with 2% B27; (Invitrogen, ref: 17504-044, batch: 2193553), L-glutamine (2 mM; PanBiotech, Ref: P04-80100, batch: 3301019), 2% PS and 50 ng/mL NGF (Sigma, Ref: N1408, L batch batch: SLCG1641). The viable cells were then counted in a Neubauer cytometer using the trypan blue exclusion test. The cells were seeded at a density of 12000 cells/wells in 96-well plates (pre-coated with poly-D-lysine; Greiner, Ref: 655940, batch: E20093UL) and have been grown at 37° C. in humidified air (95%)/C02 (5%) atmosphere. Half of the middle was changed every 2 days with fresh middle. The cells are held for 7 to 12 days to allow the proliferation of Schwann cells and sensory neurons. On day 8, the medium is supplemented with 50 μg/mL of ascorbic acid (AA; Sigma, Ref 092902, batch: 05316HJ-438) to initiate the differentiation of Schwann basal cells into myelinating Schwann cells.
Under these conditions, after 5 days of culture with AA, the myelin sheaths are detected with an anti-MAG antibody ([…]), an early marker of myelin. • A. Study of the neuroprotective properties of pluri-ionic compositions on myelinated sensory neurons after Cisplatin poisoning: curative protocol
Cis-diammineplatin (II) dichloride (cisplatin; Sigma, ref: P4394, batch: MKCL0026) was reconstituted in medium at 10 mg/ml (stock solution). The control environment was prepared under the same conditions. After 12 days of culture with AA, the primary sensory neurons were treated for 24 hours with pluri-ionic compositions in the presence or absence of cisplatin poisoning. The cisplatin preparation was used on neurons at a final concentration of 12 μM diluted in control medium for 24 hours of incubation. The pluri-ionic compositions tested are obtained by dissolution in water of lithium chloride, magnesium chloride hexahydrate and potassium chloride, and contain: • 1. KY21400: Li 10.37 mmol/kg, Mg 2.27 mmol/kg, K 16.88 mmol/kg • 2. KY21310: Li 5.76 mmol/kg, Mg 1.26 mmol/kg, K 9.38 mmol/kg • 3. KY21200: Li 1.73 mmol/kg, Mg 0.38 mmol/kg, K 2.81 mmol/kg […]

[2] = test system: sensory neurons myelinated by Schwann cells; test: Toxicity of isolated or combined ions on sensory neurons without cisplatin; format: cell-based, rat; settings: Table 1; isolated or combined ions (chlorides), no cisplatin
Text: as §1
The following conditions were tested: • Control medium • Control+cisplatin (12 μM, 24 h) • Pluri-ionic compositions KY21400, KY21310 or KY21200+cisplatin (12 μM, 24 h) • Pluri-ionic compositions KY21400, KY21310 or KY21200 • Control+individual ions at various concentrations • Control+cisplatin (12 μM, 24 h)+individual ions at various concentrations
For the evaluation of the toxicity of individual ions, the cells are fixed after 3 days of treatment. The cells are incubated with an anti-beta-tubulin mouse monoclonal antibody (1/2000, Sigma; Ref T8660-.2 mL; batch: 034M4790V) in a blocking buffer at 4° C. for 12 hours.
The cell nuclei were labeled with a fluorescent marker (Hoechst's solution, Sigma; ref: H-33258, batch: 046M4048V) in the same buffer.
For each condition, 20 images per well were taken using InCell Analyzer™ 2200 (GE Healthcare) with a magnification of 20×. The images of each well of culture were taken under the same conditions. The analysis was performed using Developer software (GE Healthcare). A total of 6 data per experimental condition was provided.
In parallel, the effect of isolated or combined ions two by two on the survival of sensory neurons and the length of neurites was also evaluated under the same conditions. The solutions are all prepared from the chlorides of the ions tested.

[3] = test system: rat myelinated primary sensory neurons; test: Neuroprotection on rat myelinated primary sensory neurons after cisplatin injury, protection protocol (2 h pretreatment); format: cell-based
Text: as §1
Cis-diammineplatin (II) dichloride (cisplatin; Sigma, ref: P4394, batch: MKCL0026) was reconstituted in medium at 10 mg/ml (stock solution). The control environment was prepared under the same conditions. […]
The following conditions were assessed: • Control medium • Control+cisplatin (12 μM, 24 h) • Pluri-ionic compositions KY21400, KY21310 or KY21200+cisplatin (12 μM, 24 h) • Pluri-ionic compositions KY21400, KY21310 or KY21200.
This study was carried out with 6 wells per condition and duplicated for validation of the results. The data taken and analyzed are the added results of the 2 studies. […]

[4] = Table 2, isolated ions with cisplatin 12 μM, 24 h
[5] = concentrations ranging from 0.15 mg/kg to 1.2 mg/kg, same conditions
[6] = Table 1, with cisplatin 12 μM, 24 h, composition incubated at the same time
[7] = cisplatin 12 μM, 24 h, composition co-incubated

SMILES: [K+] [K 366 mg/kg = 9.38 mmol/kg]
- Average percentage of neurite length relative to control [1, 4]: 91%
- Mean percentage of sensory neurons number relative to control [1, 4]: 58%
- Mean percentage of neurite length relative to control [2]: 115%
- Mean percentage of sensory neurons number relative to control [2]: 117%

SMILES: [Cl-].[Li+] [Li 40 mg/kg = 5.8 mmol/kg]
- Average percentage of neurite length relative to control [1, 4]: 80%
- Mean percentage of sensory neurons number relative to control [1, 4]: 66%
- Mean percentage of neurite length relative to control [2]: 77%
- Mean percentage of sensory neurons number relative to control [2]: 97%

SMILES: [Mn+2] [Manganese]
- effect on neurite length [1, 5]: without demonstrating any significant effect
- effect on neuron survival [1, 5]: without demonstrating any significant effect
- effect on the myelin sheath length [3, 5]: without demonstrating any significant effect

SMILES: [Cl-].[Cl-].[Mg+2] [Mg 30.8 mg/kg = 1.27 mmol/kg]
- Mean percentage of neurite length relative to control [2]: 98%
- Mean percentage of sensory neurons number relative to control [2]: 108%

SMILES: N.N.[Cl][Pt][Cl] [cisplatin, Cis-diammineplatin (II) dichloride]
- Mean percentage of neurite length relative to control [1, 6]: 35%
- Mean percentage of sensory neurons number relative to control [1, 6]: 39%
- Average percentage of neurite length relative to control [1, 4]: 63-75%
- Mean percentage of sensory neurons number relative to control [1, 4]: 51-57%
- Mean percentage of sensory neurons number relative to control ([1]; Table 4, with cisplatin (12 mm, 24 h)): 53.1%
- loss of myelin [1, 7]: 78%
- loss of neurites [1, 7]: 65%
- cell death of sensory neurons (dead cells) ([1]; cisplatin 12 μM, 24 h, composition during the 24 h of cisplatin lesion): 61%
- loss of neurites ([3]; cisplatin 12 μM, 24 h): 51%
- cell death ([3]; cisplatin 12 μM, 24 h, composition two hours before and during cisplatin injury): 64%
- loss of myelin ([3]; cisplatin 12 μM, 24 h, two-hour pre-treatment with composition): 69%

Reference: US20240261323A1, “PLURI-IONIC COMPLEX FOR THE PREVENTION OR TREATMENT OF NEUROGENIC INFLAMMATION” (OLYS PHARMA SRL, priority 2021, published 2024)
